Values quoted from earlier work, collected in patent US20250099590A1, “HIGH DENSITY ULTRASOUND COUPLING GEL AND METHODS OF USE THEREOF” (ZetrOZ Systems LLC, priority 2023, published 2025).

Columns and labels:
musculoskeletal injuries = details: SAM with 2.5% diclofenac, after 4-weeks of daily home-use
[1] = system: osteoarthritis-induced pain; details: SAM treatment with 1% topical diclofenac, after 7 days

O=C(O)Cc1ccccc1Nc1c(Cl)cccc1Cl [diclofenac]
global health and function (musculoskeletal injuries): global health and functional improvement | pain (musculoskeletal injuries): significant pain reduction | Western Ontario McMaster Outcome (WOMAC) [1]: improved | osteoarthritis-induced pain [1]: significantly alleviated
